# According to patent US4683331A, “Omega-(2,4-dihalobiphenylyl) oxo alkanoic acids” (Spofa spojene podniky pro zdravotnickou, priority 1984, dated 1987):
# Key:
# adjuvant arthritis = conditions: J. Pharm. Sci. Vol. 66 (1977); cited from earlier work
# Carrageenin edema [1] = conditions: J. Pharm. Sci. Vol. 66 (1977); cited from earlier work
# Freund adjuvans edema = experiment: Freund adjuvans edema; type: in vivo; conditions: single dose
# Description: (§1) Anti-inflammatory activity is measured according to
# (§2) Carrageenin edema and Freund adjuvans edema. The assay for
# (§3) hours after administration of each compound. The assay for Free
# adjuvans edema was performed according to Z. Horakova and J.
# Grimova, Ceskosl. Fys. Vol. 17 (1968), p. 137. Single oral doses
# The edema was evaluated 1, and 24 hours
# (§4) after administration of each compound. All of the tabulated
# (§5) values are statistically significant (p < 0.05) except for those
# Carrageenin edema [2] = experiment: Carrageenin edema; type: in vivo; conditions: single dose
# Description: as §1, §2
# Carrageenin edema was performed according to J. Winter, Proc.
# Soc. Exptl. Biol. Med. Vol. 111 (1962), p 544. Single oral doses
# Edema size was evaluated 1, 24, and 48
# as §3, §4, §5
# in vivo = conditions: acute (short-term) toxicity
# [3] = 10 mg/kg po, bracketed values not significant
# [4] = 25 mg/kg po, bracketed values not significant
# [5] = 100 mg/kg po, bracketed values not significant
SMILES,percent inhibition for adjuvant arthritis (adjuvant arthritis),activity for Carrageenin edema (Carrageenin edema [1]),activity for adjuvant arthritis (in words) (adjuvant arthritis),Adjuvans % inhibition 1 hr (Freund adjuvans edema; 10 mg/kg po),Adjuvans % inhibition 24 hr (Freund adjuvans edema; [3]),Adjuvans % inhibition 1 hr (Freund adjuvans edema; 25 mg/kg po),Adjuvans % inhibition 24 hr (Freund adjuvans edema; [4]),Adjuvans % inhibition 1 hr (Freund adjuvans edema; 100 mg/kg po),Adjuvans % inhibition 24 hr (Freund adjuvans edema; [5]),Carrageenin % inhibition 1 hr (Carrageenin edema [2]; [4]),Carrageenin % inhibition 24 hr (Carrageenin edema [2]; [4]),Carrageenin % inhibition 48 hr (Carrageenin edema [2]; 25 mg/kg po),Carrageenin % inhibition 1 hr (Carrageenin edema [2]; 100 mg/kg po),Carrageenin % inhibition 24 hr (Carrageenin edema [2]; 100 mg/kg po),Carrageenin % inhibition 48 hr (Carrageenin edema [2]; 100 mg/kg po),LD50 (in vivo),Adjuvans % inhibition 1 hr (Freund adjuvans edema; 50 mg/kg po),Adjuvans % inhibition 24 hr (Freund adjuvans edema; 50 mg/kg po),Adjuvans % inhibition 1 hr (Freund adjuvans edema; 20 mg/kg po),Adjuvans % inhibition 24 hr (Freund adjuvans edema; 20 mg/kg po)
O=C(O)CCC(=O)c1ccc(-c2ccc(Cl)cc2)cc1 [4'-Cl-fenbufen],61%,no activity,–,–,–,–,–,–,–,–,–,–,–,–,–,–,–,–,–,–
O=C(O)CCC(=O)c1ccc(-c2ccc(F)cc2)cc1 [4'-F-fenbufen],–,1.7,no activity,–,–,–,–,–,–,–,–,–,–,–,–,–,–,–,–,–
CC(CC(=O)c1ccc(-c2ccc(Cl)cc2Cl)cc1)C(=O)O (stereo not drawn) [Compound 1],–,–,–,37%,38%,40%,46%,45%,55%,27%,54%,58%,35%,73%,58%,450 mg/kg,–,–,–,–
CC(CC(=O)c1ccc(-c2ccc(F)cc2F)cc1)C(=O)O (stereo not drawn) [Compound 2],–,–,–,–,–,56%,32%,–,–,30%,61%,42%,44%,66%,45%,500 mg/kg,53%,46%,–,–
CC(CC(=O)c1ccc(-c2ccc(F)cc2)cc1)C(=O)O (stereo not drawn) [Compound 3],–,–,–,37%,31%,–,–,–,–,16%,21%,–,33%,34%,–,500 mg/kg,–,–,42%,39%
O=C(O)CCC(=O)c1ccc(-c2ccccc2)cc1 [Compound 4],–,–,–,27%,8%,31%,9%,54%,7%,40%,14%,–,46%,38%,0%,–,–,–,–,–
